In patent publication US20250332265A1, “PSMA TARGETED CONJUGATE COMPOUNDS AND USES THEREOF” (priority 2021, published 2025):

Assays:
PSMA [1] = biological target: T1, PSMA (Homo sapiens, UniProt Q04609); test: Competition binding studies, Example 2; conditions: PC3pip cells, 12 nM 3H-ZJ24, 1 h, 37° C.; read-out: IC50, concentration required to inhibit 50% of the binding
T1 construct: expressed in transfected cells; host or cells: PC3pip cells (PC3 retrovirally transduced with PSMA), from Dr. Michel Sadelain, MSKCC
T1 sequence (Q04609 whole entry): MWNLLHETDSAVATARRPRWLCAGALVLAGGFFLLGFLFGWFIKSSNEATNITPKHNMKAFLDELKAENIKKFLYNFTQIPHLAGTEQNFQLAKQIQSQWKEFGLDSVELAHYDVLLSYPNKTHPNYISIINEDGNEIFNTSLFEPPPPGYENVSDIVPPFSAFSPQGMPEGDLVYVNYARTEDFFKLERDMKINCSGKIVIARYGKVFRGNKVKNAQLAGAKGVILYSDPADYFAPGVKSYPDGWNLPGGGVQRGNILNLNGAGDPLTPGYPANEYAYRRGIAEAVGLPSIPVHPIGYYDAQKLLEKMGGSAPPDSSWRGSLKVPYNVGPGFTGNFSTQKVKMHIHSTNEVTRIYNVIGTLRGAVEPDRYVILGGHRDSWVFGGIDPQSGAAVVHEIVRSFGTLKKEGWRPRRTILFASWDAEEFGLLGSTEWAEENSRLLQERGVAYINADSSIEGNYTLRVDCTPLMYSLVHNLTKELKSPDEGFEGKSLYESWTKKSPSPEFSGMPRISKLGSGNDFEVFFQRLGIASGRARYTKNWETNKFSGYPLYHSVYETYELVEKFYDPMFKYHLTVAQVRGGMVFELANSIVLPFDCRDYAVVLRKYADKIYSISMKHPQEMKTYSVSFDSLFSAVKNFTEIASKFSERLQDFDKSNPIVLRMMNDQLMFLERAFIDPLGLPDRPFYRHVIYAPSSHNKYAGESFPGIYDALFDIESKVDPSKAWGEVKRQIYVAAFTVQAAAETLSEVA
Description: PC3pip cells ([…]) was suspended in 200 μL of 50 mM Tris buffer, pH 7.5. The cells were incubated at 37° C. with different concentrations of PSMA-1-MMAE-IR700 or ZJ24 in the presence of 12 nM of 3H-ZJ24 for 1 h. The cells were then washed 3 times with cold PBS and cell-associated radioactivity was measured by scintillation counting. The concentration required to inhibit 50% of the binding (IC50) was determined by GraphPad Prism 3.0. Studies were performed in triplicate.

PSMA [2] = biological target: T1, PSMA; test: Competitive binding assay (3H-ZJ24 displacement), Example 1; conditions: PC3pip cells, 10 nM 3H-ZJ24; read-out: IC50, concentration required to inhibit 50% of binding
Description: The assay was carried as previously reported by incubation PC3pip cells with different concentrations of drug conjugates in the presence of 10 nM N—[N—[(S)-1,3-dicarboxypropyl]carbamoyl]-S-[^3H]-methyl-L-cysteine (^3H-ZJ24) (GE Healthcare Life Sciences, Pittsburgh, PA). Radioactivity of cell pellet was counted by scintillation counter.

IC50 (PSMA [1]): 10.7 ± 0.89 nM
IC50 (PSMA [2]): 11.7 nM
SMILES: NCCCC[C@H](NC(=O)N[C@@H](CCC(=O)O)C(=O)O)C(=O)O [ZJ24, (S)-2-(3-((S)-5-amino-1-carboxypentyl)-ureido)pentanedioic acid, reference compound]
